Data from PubChem BioAssay (NCI).
Several values for one entry are separate records, joined by “and”; a condition that tells them apart may be missing. Equal values may be shown once.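 Briefly, cells in 96-well plates were exposed to five compound concentrations for 48 h, and endpoints were estimated by linear interpolation. GI50 is the concentration that inhibits growth by half. TGI is the concentration that stops growth completely.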

Legend:
Test in all cases: inhibition of tumour cell growth, NCI panel, 48 h
M14 melanoma = system: M14 melanoma
UACC-62 melanoma = system: UACC-62 melanoma
TK-10 renal = system: TK-10 renal
NCI-H23 lung = system: NCI-H23 lung
EKVX NSCLC = system: EKVX NSCLC
NCI-H460 lung = system: NCI-H460 lung

| Structure (SMILES) | GI50 (M14 melanoma) | TGI (M14 melanoma) | GI50 (UACC-62 melanoma) | TGI (UACC-62 melanoma) | GI50 (TK-10 renal) | TGI (TK-10 renal) | GI50 (NCI-H23 lung) | TGI (NCI-H23 lung) | TGI (EKVX NSCLC) | TGI (NCI-H460 lung) | GI50 (EKVX NSCLC) | GI50 (NCI-H460 lung) |
| --- | --- | --- | --- | --- | --- | --- | --- | --- | --- | --- | --- | --- |
| O=C1C2CC3C(CC2C(=O)[N]1[Sn]([c]1ccccc1)([c]1ccccc1)[c]1ccccc1)C1(Cl)C(Cl)=C(Cl)C3(Cl)C1(Cl)Cl (stereo not drawn) | 150 nM | 0.345 µM | 118 nM | 0.288 µM | 145 nM | 0.288 µM | 150 nM | 0.388 µM | – | – | – | – |
| CC1(C)SC2C(C(=O)O)N=C(Cc3ccccc3)N2C1C(=O)O (stereo not drawn) | – | > 100 µM | – | > 100 µM | – | 40.5 µM | – | > 100 µM | 29.7 µM | > 100 µM | – | – |
| Cc1ccc(-c2csc(N(C(=O)N3CCN(c4cc5c(cc4F)c(=O)c(C(=O)O)cn5C4CC4)CC3)c3ccccc3)n2)cc1 | 394 nM | > 100 µM | – | – | 541 nM | 11.5 µM | 317 nM | > 100 µM | > 100 µM | > 100 µM | 381 nM | 331 nM |
| CC(=O)O[C@H](C[C@H](C(C)C)N(C)C(=O)[C@@H](NC(=O)[C@H]1CCCCN1C)C(C)C)c1nc(C(=O)N[C@@H](Cc2ccccc2)C[C@H](C)C(=O)O)c(C)s1 | < 2.5 nM | > 25 µM | < 2.5 nM | > 25 µM | > 25000 nM | > 25 µM | < 2.5 nM | > 25 µM | > 25 µM | > 25 µM | 2.66 nM | < 2.5 nM |
| COc1ccc(C(=S)c2cc(OC)c(OC)c(OC)c2)cc1OC(=O)CCl | < 12.5 nM | > 49.6 µM | 39.1 nM | > 100 µM | 32600 nM | > 100 µM | 51 nM | > 100 µM | > 100 µM | 12.9 µM | 652 nM | 30.1 nM |
| O=c1ncc(-c2ccc(C(F)(F)F)cc2)c(NC2CCCCCC2)[nH]1 | 20400 nM | 45.8 µM | 13800 nM | 29.3 µM | 35700 nM | 73.9 µM | 29400 nM | 90.9 µM | – | 35 µM | – | 17700 nM |
| CC[C@H](C)c1occ2c(O)c(C(=O)O)c(=O)cc-2c1C | – | > 100 µM | – | 37.4 µM | – | > 100 µM | – | 43.1 µM | > 100 µM | 60.6 µM | – | – |
| N=c1ccn2c(n1)OC1C(OP(=O)(O)O)C(CO)OC12 (stereo not drawn) | – | > 45.8 µM | – | > 100 µM | – | > 100 µM | – | > 100 µM | > 100 µM | > 39.2 µM | – | – |
| COc1ccc(OC)c(/C=C/c2nnc(Nc3ccc(Cl)cc3)o2)c1 | 20700 nM | > 100 µM | 16200 nM | > 100 µM | 7400 nM | 83.2 µM | 21700 nM | > 100 µM | > 100 µM | > 100 µM | 40500 nM | 3770 nM |
| O=S(=O)(/C=C/C=C/S(=O)(=O)c1ccccc1)c1ccccc1 | 801 nM | 1.12 µM and 2.06 µM | 352 nM | 2.43 µM and 1.88 µM | 1350 nM | 2.95 µM and 2.69 µM | 1060 nM | 3.14 µM and 2.62 µM | 3.53 µM | 16.9 µM | – | 4010 nM |
| O=C1C=C(Nc2ccccc2)c2ncccc2C1=O | 352 nM | 1.17 µM | 224 nM | 0.521 µM | 1820 nM | 3.28 µM | 307 nM | 1.31 µM | 2.81 µM | 1.11 µM | 1370 nM | 350 nM |
| C[C@H](c1ccc(Cl)cc1N)N1C(=O)c2cc(I)ccc2N(CCCN2CCN(C)CC2)C(=O)[C@@H]1c1ccc(Cl)cc1 | 1960 nM | 3.65 µM | 1230 nM | 2.54 µM | 1610 nM | 3.07 µM | 2180 nM | 5.86 µM | 3.21 µM | 2.71 µM | 1550 nM | 1320 nM |
| Nc1ccccc1NC(=O)c1ccc(CSc2nc(N3CCOCC3)c3cccn3n2)cc1 | 756 nM | > 100 µM | 412 nM | 2.82 µM | 163 nM | 1.61 µM | 1520 nM | > 100 µM | > 100 µM | > 100 µM | 1080 nM | 524 nM |
| CC(C)(Cl)CCC1=C(Cl)C(=O)c2ccccc2C1=O | 2280 nM | 5.51 µM | – | – | – | – | 2820 nM | 9.93 µM | – | 12.4 µM | – | 3310 nM |
| COc1ccc(-c2cc(-c3ccc(Nc4nc(Nc5ccc(Cl)cc5)nc(Nc5ccc(Cl)cc5)n4)cc3)no2)cc1 | 16200 nM | 53.7 µM | 23100 nM | 57.6 µM | 20400 nM | 72.7 µM | 11700 nM | 28.1 µM | 85.6 µM | 25.2 µM | 10200 nM | 5580 nM |
| Nc1ncc(-c2cnn(C3CCNCC3)c2)cc1-c1nc2ccccc2o1 | 1210 nM | 2.54 µM | 1600 nM | 3.07 µM | 924 nM | 4.04 µM | 1350 nM | 12.7 µM | 17.8 µM | 2.54 µM | 4400 nM | 998 nM |

| Structure (SMILES) | GI50 (M14 melanoma) | TGI (M14 melanoma) | GI50 (UACC-62 melanoma) | TGI (UACC-62 melanoma) | GI50 (TK-10 renal) | TGI (TK-10 renal) | GI50 (NCI-H23 lung) | TGI (NCI-H23 lung) | TGI (EKVX NSCLC) | TGI (NCI-H460 lung) | GI50 (EKVX NSCLC) | GI50 (NCI-H460 lung) |
| --- | --- | --- | --- | --- | --- | --- | --- | --- | --- | --- | --- | --- |
| CNC(=O)c1ccc(Nc2ncc(C(F)(F)F)c(NCc3nccnc3N(C)S(C)(=O)=O)n2)cc1 | 2000 nM and 2270 nM and 1980 nM | > 10 µM and 11.6 µM and 19 µM | 1760 nM and 1660 nM and 1630 nM | > 10 µM and 4.37 µM and 4.24 µM | 1650 nM and 1700 nM and 3090 nM | > 10 µM and 10.4 µM and 13.3 µM | 2610 nM and 2380 nM and 2810 nM | 8.64 µM and 7 µM | > 10 µM and 10.8 µM | > 10 µM and 10.2 µM and 11.1 µM | 2490 nM and 2640 nM | 2050 nM and 2750 nM and 2160 nM |
| O=C1C(=O)c2cc([N+](=O)[O-])ccc2-c2ccccc21 | 1970 nM | 3.5 µM | 1700 nM | 3.13 µM | 1770 nM | 3.19 µM | 1650 nM | 3.29 µM | 3.16 µM | 3.35 µM | 1620 nM | 1780 nM |
| COc1ccc(-c2coc3ncnc(N)c23)cc1 | > 25000 nM | > 25 µM | > 25000 nM | > 25 µM | > 25000 nM | > 25 µM | > 25000 nM | > 25 µM | > 25 µM | > 25 µM | > 25000 nM | > 25000 nM |
| COc1cc2[nH]c(C(=O)c3cc(OC)c(OC)c(OC)c3)c(N)c2cc1C#CCO | – | – | 7560 nM | > 100 µM | 44100 nM | > 100 µM | 508 nM | > 100 µM | – | > 100 µM | – | 394 nM |
| [N-]=[N+]=NC1(N=[N+]=[N-])C(=O)NN=C(c2ccccc2)C1=O (stereo not drawn) | – | > 100 µM | – | > 100 µM | – | > 100 µM | – | > 100 µM | > 100 µM | > 100 µM | – | – |
| CN1CCN(C(=O)c2ccc(NC(=O)Nc3ccc(N(C)c4ccnc(Nc5ccc(CS(C)(=O)=O)cc5)n4)cc3)cc2)CC1 | > 23200 nM | > 25 µM | 9990 nM | > 25 µM | > 25000 nM | > 25 µM | 19000 nM | > 25 µM | > 25 µM | > 25 µM | > 25000 nM | 11800 nM |
| CC(C)C1C(=O)N2CCCC2C2(O)OC(NC(=O)C3C=C4c5cccc6[nH]cc(c56)CC4N(C)C3)(C(C)C)C(=O)N12 (stereo not drawn) | – | 75.5 µM | – | 55.7 µM | – | 68.6 µM | – | > 100 µM | 73.1 µM | 39.2 µM | – | – |
| CCc1ccc(C2=C/C(=C/c3ccc(Cl)cc3)C(=O)N2CCc2ccc(S(N)(=O)=O)cc2)cc1 | 2080 nM | 5.26 µM | 1820 nM | 6.22 µM | 2210 nM | 7.37 µM | 2450 nM | 7.46 µM | 10 µM | – | 2620 nM | – |
| C/C(=C\c1ccn(-c2ccc(N)c(C(F)(F)F)c2)n1)[C@@H]1C[C@@H]2O[C@]2(C)CCC[C@H](C)[C@H](O)[C@@H](C)C(=O)C(C)(C)[C@@H](O)CC(=O)O1 | – | – | 59.9 nM | > 16.2 µM | 54.8 nM | 16.9 µM | 22.1 nM | > 32.5 µM | > 32.5 µM | 6.21 µM | 344 nM | 8.48 nM |
| CCCCCCCCCCCCCOC(=O)c1c(C)[nH]c(/C=C2\N=C(c3ccc[nH]3)C=C2OC)c1C | 17.8 nM | 0.0461 µM | 32.9 nM | 0.139 µM | 174 nM | 20 µM | 244 nM | 31.4 µM | – | > 100 µM | – | < 17 nM |
| O=c1[nH]cnc2c(C3OC(CO)C(O)C3O)[nH]nc12 (stereo not drawn) | – | > 100 µM | – | > 100 µM | – | – | – | > 100 µM | > 100 µM | > 100 µM | – | – |
| C#C[C@@]1(O)[C@@H](CO)O[C@@H](n2cc(Cl)c3c(N)ncnc32)[C@@H]1O | 177 nM | 0.585 µM | – | – | 317 nM | 1.24 µM | 192 nM | 0.957 µM | 2.43 µM | 0.412 µM | 261 nM | < 21.5 nM |
| O=C(O)C1C2C=CC(O2)C1C(=O)Nc1ccccc1 (stereo not drawn) | – | > 100 µM | – | > 100 µM | – | > 100 µM | – | > 100 µM | > 100 µM | – | – | – |
| CCC1CCc2nc3sc(C(=O)Nc4ccccc4F)c(N)c3cc2C1 (stereo not drawn) | – | – | 523 nM | > 100 µM | – | – | > 100000 nM | > 100 µM | – | > 100 µM | – | 2710 nM |
| CCCCCCCCN(CCCCCCCC)C(=N)c1ccnc2ccccc12 | 336 nM | 1.36 µM | 1250 nM | 2.65 µM | 1440 nM | 2.83 µM | 1490 nM | 3.03 µM | 2.68 µM | – | 1280 nM | – |
